The compounds below were run against FXR (Homo sapiens (Human), UniProt Q96RI1) (assay: transient human FXR/Gal4-luciferase reporter assay). Conditions: not given.
Type: cell-based
Outline: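 Compound exposure ran overnight at 37 °C and activity was measured as luminescence with Steady-Glo reagent. The cells were a HEK293 line stably expressing firefly luciferase under five Gal4 response elements. They were transiently transfected, one night beforehand, with a plasmid encoding Gal4 DNA-binding domain fused to the human FXR ligand-binding domain.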

Chain of FXR (Q96RI1 262-486): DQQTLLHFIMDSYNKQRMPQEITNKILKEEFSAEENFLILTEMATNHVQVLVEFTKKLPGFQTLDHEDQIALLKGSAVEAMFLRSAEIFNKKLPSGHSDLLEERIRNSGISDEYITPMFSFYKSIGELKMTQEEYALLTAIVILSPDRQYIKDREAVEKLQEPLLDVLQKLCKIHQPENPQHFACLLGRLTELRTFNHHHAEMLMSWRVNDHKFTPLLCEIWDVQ

Row | SMILES | EC50 [nM]
1 | Cc1nc2ccc(-c3cccc(N(CC45CCC(c6nc(C7CC7)no6)(CC4)OC5)C(=O)C4CC(F)(F)C4)c3)cc2s1 [Example 565, N-((1-(3-cyclopropyl-1,2,4-oxadiazol-5-yl)-2-oxabicyclo[2.2.2]octan-4-yl)methyl)-3,3-difluoro-N-(3-(2-methylbenzo[d]thiazol-6-yl)phenyl)cyclobutane-1-carboxamide] | 947
2 | Cc1nc2ccc(-c3cccc(N(CC45CCC(c6nc(C7CC7)no6)(CC4)OC5)C(=O)C4CC(C(F)F)C4)c3)cc2s1 (centres unmarked) [Example 566, N-((1-(3-cyclopropyl-1,2,4-oxadiazol-5-yl)-2-oxabicyclo[2.2.2]octan-4-yl)methyl)-3-(difluoromethyl)-N-(3-(2-methylbenzo[d]thiazol-6-yl)phenyl)cyclobutane-1-carboxamide] | 922
3 | Cc1nc2ccc(-c3cccc(N(CC45CCC(c6nc(C7CC7)no6)(CC4)OC5)C(=O)C4CCC(F)(F)C4)c3)cc2s1 (centres unmarked) [Example 567, N-((1-(3-cyclopropyl-1,2,4-oxadiazol-5-yl)-2-oxabicyclo[2.2.2]octan-4-yl)methyl)-3,3-difluoro-N-(3-(2-methylbenzo[d]thiazol-6-yl)phenyl)cyclopentane-1-carboxamide] | 432

Same assay, conditions: Gal4-hFXR fusion construct, HEK293 reporter cells; response relative to 8 μM GW-4064

Row | EC50 [nM] | SMILES
4 | 207 | Cc1nc2ccc(-c3cccc(N(CC45CCC(c6nc(C7CC7)no6)(CC4)OC5)C(=O)C45CC(F)(C4)C5)c3)cc2s1 [Example 564, N-((1-(3-cyclopropyl-1,2,4-oxadiazol-5-yl)-2-oxabicyclo[2.2.2]octan-4-yl)methyl)-3-fluoro-N-(3-(2-methylbenzo[d]thiazol-6-yl)phenyl)bicyclo[1.1.1]pentane-1-carboxamide]
5 | 2440 | Cc1nc2ccc(-c3cccc(N(CC45CCC(c6ccc(C#N)cc6)(CC4)OC5)C(=O)C45CC(F)(C4)C5)c3)cc2s1 [Example 568, N-((1-(4-Cyanophenyl)-2-oxabicyclo[2.2.2]octan-4-yl)methyl)-3-fluoro-N-(3-(2-methylbenzo[d]thiazol-6-yl)phenyl)bicyclo[1.1.1]pentane-1-carboxamide]
6 | 2220 | Cc1nc2ccc(-c3cccc(N(CC45CCC(c6ccc(C(=O)N(C)C)cc6)(CC4)OC5)C(=O)C45CC(F)(C4)C5)c3)cc2s1 [Example 569, N-((1-(4-(dimethylcarbamoyl)phenyl)-2-oxabicyclo[2.2.2]octan-4-yl)methyl)-3-fluoro-N-(3-(2-methylbenzo[d]thiazol-6-yl)phenyl)bicyclo[1.1.1]pentane-1-carboxamide]
7 | 926 | COc1cc(-c2cccc(N(CC34CCC(C(=O)NC5CC5)(CC3)CC4)C(=O)C34CC(F)(C3)C4)c2)ccn1 [Example 570, N-cyclopropyl-4-((3-fluoro-N-(3-(2-methoxypyridin-4-yl)phenyl)bicyclo[1.1.1]pentane-1-carboxamido)methyl)bicyclo[2.2.2]octane-1-carboxamide]
8 | 47 | CC(F)(F)c1nc(C23CCC(CN(C(=O)C45CC(F)(C4)C5)c4cccc(C5CC5)c4)(CC2)CC3)no1 [Example 571, N-(3-cyclopropylphenyl)-N-((4-(5-(1,1-difluoroethyl)-1,2,4-oxadiazol-3-yl)bicyclo[2.2.2]octan-1-yl)methyl)-3-fluorobicyclo[1.1.1]pentane-1-carboxamide]
9 | 146 | O=C(N(CC12CCC(c3noc(C(F)(F)F)n3)(CC1)CC2)c1cccc(C2CC2)c1)C12CC(F)(C1)C2 [Example 572, N-(3-cyclopropylphenyl)-3-fluoro-N-((4-(5-(trifluoromethyl)-1,2,4-oxadiazol-3-yl)bicyclo[2.2.2]octan-1-yl)methyl)bicyclo[1.1.1]pentane-1-carboxamide]
10 | 44 | O=C(N(CC12CCC(c3noc(C4(F)CC4)n3)(CC1)CC2)c1cccc(C2CC2)c1)C12CC(F)(C1)C2 [Example 573, N-(3-cyclopropylphenyl)-3-fluoro-N-((4-(5-(1-fluorocyclopropyl)-1,2,4-oxadiazol-3-yl)bicyclo[2.2.2]octan-1-yl)methyl)bicyclo[1.1.1]pentane-1-carboxamide]
11 | 244 | CC(F)(F)c1nc(C23CCC(CN(C(=O)C45CC(F)(C4)C5)c4ccc(F)c(C5CC5)c4)(CC2)CC3)no1 [Example 574, N-(3-cyclopropyl-4-fluorophenyl)-N-((4-(5-(1,1-difluoroethyl)-1,2,4-oxadiazol-3-yl)bicyclo[2.2.2]octan-1-yl)methyl)-3-fluorobicyclo[1.1.1]pentane-1-carboxamide]
12 | 410 | CC(F)(F)c1nc(C23CCC(CN(C(=O)C45CC(F)(C4)C5)c4ccc(F)c(N5CCC5)c4)(CC2)CC3)no1 [Example 575, N-(3-(azetidin-1-yl)-4-fluorophenyl)-N-((4-(5-(1,1-difluoroethyl)-1,2,4-oxadiazol-3-yl)bicyclo[2.2.2]octan-1-yl)methyl)-3-fluorobicyclo[1.1.1]pentane-1-carboxamide]
13 | 19 | CC(C)(O)c1ccc(-c2cccc(N(C[C@]34CC[C@](c5noc(C(C)(C)F)n5)(CC3)CC4)C(=O)C3CC(O)(C(F)(F)F)C3)c2)cc1 (stereo partly drawn) [Example 576, (cis)-N-((4-(5-(2-fluoropropan-2-yl)-1,2,4-oxadiazol-3-yl)bicyclo[2.2.2]octan-1-yl)methyl)-3-hydroxy-N-(4′-(2-hydroxypropan-2-yl)-[1,1′-biphenyl]-3-yl)-3-(trifluoromethyl)cyclobutane-1-carboxamide]
14 | 23 | CC(C)(O)c1ccc(-c2cccc(N(CC34CCC(c5noc(C(C)(C)F)n5)(CC3)CC4)C(=O)[C@H]3C[C@@](C)(O)C3)c2)cc1 [Example 577, (cis)-N-((4-(5-(2-fluoropropan-2-yl)-1,2,4-oxadiazol-3-yl)bicyclo[2.2.2]octan-1-yl)methyl)-3-hydroxy-N-(4′-(2-hydroxypropan-2-yl)-[1,1′-biphenyl]-3-yl)-3-methylcyclobutane-1-carboxamide]
15 | 92 | N#CC1(c2ccc(-c3cccc(N(CC45CCC(c6noc(C7(F)CC7)n6)(CC4)CC5)C(=O)[C@H]4C[C@](O)(C(F)(F)F)C4)c3)cc2F)CC1 [Example 578, (cis)-N-(4′-(1-cyanocyclopropyl)-3′-fluoro-[1,1′-biphenyl]-3-yl)-N-((4-(5-(1-fluorocyclopropyl)-1,2,4-oxadiazol-3-yl)bicyclo[2.2.2]octan-1-yl)methyl)-3-hydroxy-3-(trifluoromethyl)cyclobutane-1-carboxamide]
16 | 45 | O=C(N(CC12CCC(c3noc(C4(F)CC4)n3)(CC1)CC2)c1cccc(-c2cnc(C3CC3)nc2)c1)C12CC(F)(C1)C2 [Example 579, N-(3-(2-cyclopropylpyrimidin-5-yl)phenyl)-3-fluoro-N-((4-(5-(1-fluorocyclopropyl)-1,2,4-oxadiazol-3-yl)bicyclo[2.2.2]octan-1-yl)methyl)bicyclo[1.1.1]pentane-1-carboxamide]
17 | 160 | O=C(N(CC12CCC(c3noc(C(F)(F)F)n3)(CC1)CC2)c1cccc(-c2cnc(C3CC3)nc2)c1)C12CC(F)(C1)C2 [Example 580, N-(3-(2-cyclopropylpyrimidin-5-yl)phenyl)-3-fluoro-N-((4-(5-(trifluoromethyl)-1,2,4-oxadiazol-3-yl)bicyclo[2.2.2]octan-1-yl)methyl)bicyclo[1.1.1]pentane-1-carboxamide]
18 | 74 | CC(C)Oc1ccc(-c2cc(N(CC34CCC(c5noc(C6(F)CC6)n5)(CC3)CC4)C(=O)[C@H]3C[C@](O)(C(F)(F)F)C3)ccc2F)cc1 [Example 581, (cis)-N-(6-fluoro-4′-isopropoxy-[1,1′-biphenyl]-3-yl)-N-((4-(5-(1-fluorocyclopropyl)-1,2,4-oxadiazol-3-yl)bicyclo[2.2.2]octan-1-yl)methyl)-3-hydroxy-3-(trifluoromethyl)cyclobutane-1-carboxamide]
19 | 48 | CC(C)(C#N)Oc1ccc(-c2cc(N(CC34CCC(c5noc(C(C)(C)F)n5)(CC3)CC4)C(=O)[C@H]3C[C@](O)(C(F)(F)F)C3)ccc2F)cc1 [Example 582, (cis)-N-(4′-((2-cyanopropan-2-yl)oxy)-6-fluoro-[1,1′-biphenyl]-3-yl)-N-((4-(5-(2-fluoropropan-2-yl)-1,2,4-oxadiazol-3-yl)bicyclo[2.2.2]octan-1-yl)methyl)-3-hydroxy-3-(trifluoromethyl)cyclobutane-1-carboxamide]
20 | 49 | CC(C)(C#N)Oc1ccc(-c2cccc(N(CC34CCC(c5noc(C6(F)CC6)n5)(CC3)CC4)C(=O)C3CC(O)(C(F)(F)F)C3)c2)cc1 (stereo not drawn) [Example 583, (cis)-N-(4′-((2-cyanopropan-2-yl)oxy)-[1,1′-biphenyl]-3-yl)-N-((4-(5-(1-fluorocyclopropyl)-1,2,4-oxadiazol-3-yl)bicyclo[2.2.2]octan-1-yl)methyl)-3-hydroxy-3-(trifluoromethyl)cyclobutane-1-carboxamide]
21 | 31 | CC(C)Oc1ccc(-c2cccc(N(CC34CCC(c5noc(C(C)(C)F)n5)(CC3)CC4)C(=O)OC(C)(C)C(F)(F)F)c2)cc1 [Example 584, 1,1,1-trifluoro-2-methylpropan-2-yl ((4-(5-(2-fluoropropan-2-yl)-1,2,4-oxadiazol-3-yl)bicyclo[2.2.2]octan-1-yl)methyl)(4′-isopropoxy-[1,1′-biphenyl]-3-yl)carbamate]
22 | 18 | CC(C)(O)c1ccc(-c2cccc(N(CC34CCC(c5noc(C(C)(F)F)n5)(CC3)CC4)C(=O)C34CC(C#N)(C3)C4)c2)cc1 [Example 585, 3-cyano-N-((4-(5-(1,1-difluoroethyl)-1,2,4-oxadiazol-3-yl)bicyclo[2.2.2]octan-1-yl)methyl)-N-(4′-(2-hydroxypropan-2-yl)-[1,1′-biphenyl]-3-yl)bicyclo[1.1.1]pentane-1-carboxamide]
23 | 36 | CC(C)Oc1ccc(-c2cc(N(CC34CCC(c5noc(C6(F)CC6)n5)(CC3)CC4)C(=O)NC(C)(C)C)ccc2F)cc1 [Example 586, 3-(tert-butyl)-1-(6-fluoro-4′-isopropoxy-[1,1′-biphenyl]-3-yl)-1-((4-(5-(1-fluorocyclopropyl)-1,2,4-oxadiazol-3-yl)bicyclo[2.2.2]octan-1-yl)methyl)urea]

From patent US11254663B2 (BRISTOL-MYERS SQUIBB COMPANY, priority 2019, dated 2022)
